Test results: patent publication US9809578B2, “Pyrazolyl urea, thiourea, guanidine and cyanoguanidine compounds as trkA kinase inhibitors” (Array BioPharma Inc., priority 2012, dated 2017)

Assays:
Flt1 = target: T1, Flt1 (Homo sapiens, UniProt P17948); assay: KinaseProfiler Flt1; assay type: biochemical; settings: 10 μM, ATP near Km
T1 construct: purchased Millipore, Inc. (KinaseProfiler service)
Description: (§1) The compound was run in duplicate at a concentration of ATP near the Km for each individual kinase according to Millipore's specifications.

MST2 = target: T2, MST2 (Homo sapiens, UniProt Q13188); assay: KinaseProfiler MST2; assay type: biochemical; settings: 10 μM, ATP near Km
T2 construct: purchased Millipore, Inc. (KinaseProfiler service)
Description: as §1

MAP3K5 = target: T3, MAP3K5 (Homo sapiens, UniProt Q99683); assay: KinaseProfiler MAP3K5; assay type: biochemical; settings: 10 μM, ATP near Km
T3 construct: purchased Millipore, Inc. (KinaseProfiler service)
Description: as §1

mTOR/FKBP12 = target: T4, mTOR/FKBP12 (Homo sapiens, UniProt P42345); assay: KinaseProfiler mTOR/FKBP12; assay type: biochemical; settings: 10 μM, ATP near Km
T4 construct: purchased Millipore, Inc. (KinaseProfiler service)
Description: as §1

WNK2 = target: T5, WNK2 (Homo sapiens, UniProt Q9Y3S1); assay: KinaseProfiler WNK2; assay type: biochemical; settings: 10 μM, ATP near Km
T5 construct: purchased Millipore, Inc. (KinaseProfiler service)
Description: as §1

Rsk2 = target: T6, Rsk2 (Homo sapiens, UniProt P51812); assay: KinaseProfiler Rsk2; assay type: biochemical; settings: 10 μM, ATP near Km
T6 construct: purchased Millipore, Inc. (KinaseProfiler service)
Description: as §1

HIPK2 = target: T7, HIPK2 (Homo sapiens, UniProt Q9H2X6); assay: KinaseProfiler HIPK2; assay type: biochemical; settings: 10 μM, ATP near Km
T7 construct: purchased Millipore, Inc. (KinaseProfiler service)
Description: as §1

PKCtheta = target: T8, PKCtheta (Homo sapiens, UniProt Q04759); assay: KinaseProfiler PKCtheta; assay type: biochemical; settings: 10 μM, ATP near Km
T8 construct: purchased Millipore, Inc. (KinaseProfiler service)
Description: as §1

RIPK2 = target: T9, RIPK2 (Homo sapiens, UniProt O43353); assay: KinaseProfiler RIPK2; assay type: biochemical; settings: 10 μM, ATP near Km
T9 construct: purchased Millipore, Inc. (KinaseProfiler service)
Description: as §1

EphA5 = target: T10, EphA5 (Homo sapiens, UniProt P54756); assay: KinaseProfiler EphA5; assay type: biochemical; settings: 10 μM, ATP near Km
T10 construct: purchased Millipore, Inc. (KinaseProfiler service)
Description: as §1

IGF-1R Activated = target: T11, IGF-1R Activated (Homo sapiens, UniProt P08069); assay: KinaseProfiler IGF-1R Activated; assay type: biochemical; settings: 10 μM, ATP near Km
T11 construct: purchased Millipore, Inc. (KinaseProfiler service)
Description: as §1

IR Activated = target: T12, IR Activated (Homo sapiens, UniProt P06213); assay: KinaseProfiler IR Activated; assay type: biochemical; settings: 10 μM, ATP near Km
T12 construct: purchased Millipore, Inc. (KinaseProfiler service)
Description: as §1

CK1delta = target: T13, CK1delta (Homo sapiens, UniProt P48730); assay: KinaseProfiler CK1delta; assay type: biochemical; settings: 10 μM, ATP near Km
T13 construct: purchased Millipore, Inc. (KinaseProfiler service)
Description: as §1

ALK = target: T14, ALK (Homo sapiens, UniProt Q9UM73); assay: KinaseProfiler ALK; assay type: biochemical; settings: 10 μM, ATP near Km
T14 construct: purchased Millipore (KinaseProfiler service)
Description: as §1

MRCKalpha = target: T15, MRCKalpha (Homo sapiens, UniProt Q5VT25); assay: KinaseProfiler MRCKalpha; assay type: biochemical; settings: 10 μM, ATP near Km
T15 construct: purchased Millipore, Inc. (KinaseProfiler service)
Description: as §1

MAPKAP-K3 = target: T16, MAPKAP-K3 (Homo sapiens, UniProt Q16644); assay: KinaseProfiler MAPKAP-K3; assay type: biochemical; settings: 10 μM, ATP near Km
T16 construct: purchased Millipore, Inc. (KinaseProfiler service)
Description: as §1

IGF-1R = target: T17, IGF-1R (Homo sapiens, UniProt P08069); assay: KinaseProfiler IGF-1R; assay type: biochemical; settings: 10 μM, ATP near Km
T17 construct: purchased Millipore, Inc. (KinaseProfiler service)
Description: as §1

AURKA = target: T18, AURKA (Homo sapiens, UniProt O14965); assay: KinaseProfiler AURKA; assay type: biochemical; settings: 10 μM, ATP near Km
T18 construct: purchased Millipore (KinaseProfiler service)
Description: as §1

Fyn = target: T19, Fyn (Homo sapiens, UniProt P06241); assay: KinaseProfiler Fyn; assay type: biochemical; settings: 10 μM, ATP near Km
T19 construct: purchased Millipore, Inc. (KinaseProfiler service)
Description: as §1

MKK4_m = target: T20, MKK4_m (Mus musculus, UniProt P47809); assay: KinaseProfiler MKK4_m; assay type: biochemical; settings: 10 μM, ATP near Km
T20 construct: purchased Millipore, Inc. (KinaseProfiler service)
Description: as §1

PDGFRalpha = target: T21, PDGFRalpha (Homo sapiens, UniProt P16234); assay: KinaseProfiler PDGFRalpha; assay type: biochemical; settings: 10 μM, ATP near Km
T21 construct: purchased Millipore, Inc. (KinaseProfiler service)
Description: as §1

CK1gamma3 = target: T22, CK1gamma3 (Homo sapiens, UniProt Q9Y6M4); assay: KinaseProfiler CK1gamma3; assay type: biochemical; settings: 10 μM, ATP near Km
T22 construct: purchased Millipore, Inc. (KinaseProfiler service)
Description: as §1

FGFR4 = target: T23, FGFR4 (Homo sapiens, UniProt P22455); assay: KinaseProfiler FGFR4; assay type: biochemical; settings: 10 μM, ATP near Km
T23 construct: purchased Millipore, Inc. (KinaseProfiler service)
Description: as §1

DAPK1 = target: T24, DAPK1 (Homo sapiens, UniProt P53355); assay: KinaseProfiler DAPK1; assay type: biochemical; settings: 10 μM, ATP near Km
T24 construct: purchased Millipore, Inc. (KinaseProfiler service)
Description: as §1

TAO2 = target: T25, TAO2 (Homo sapiens, UniProt Q9UL54); assay: KinaseProfiler TAO2; assay type: biochemical; settings: 10 μM, ATP near Km
T25 construct: purchased Millipore, Inc. (KinaseProfiler service)
Description: as §1

LIMK1 = target: T26, LIMK1 (Homo sapiens, UniProt P53667); assay: KinaseProfiler LIMK1; assay type: biochemical; settings: 10 μM, ATP near Km
T26 construct: purchased Millipore, Inc. (KinaseProfiler service)
Description: as §1

Plk3 = target: T27, Plk3 (Homo sapiens, UniProt Q9H4B4); assay: KinaseProfiler Plk3; assay type: biochemical; settings: 10 μM, ATP near Km
T27 construct: purchased Millipore, Inc. (KinaseProfiler service)
Description: as §1

off-target kinases = settings: 10 μM
Description: as §1

MAP4K2 = target: T28, MAP4K2 (Homo sapiens, UniProt Q12851); assay: KinaseProfiler MAP4K2; assay type: biochemical; settings: 10 μM, ATP near Km
T28 construct: purchased Millipore, Inc. (KinaseProfiler service)
Description: as §1

PASK = target: T29, PASK (Homo sapiens, UniProt Q96RG2); assay: KinaseProfiler PASK; assay type: biochemical; settings: 10 μM, ATP near Km
T29 construct: purchased Millipore, Inc. (KinaseProfiler service)
Description: as §1

PAK2 = target: T30, PAK2 (Homo sapiens, UniProt Q13177); assay: KinaseProfiler PAK2; assay type: biochemical; settings: 10 μM, ATP near Km
T30 construct: purchased Millipore, Inc. (KinaseProfiler service)
Description: as §1

CDK2/cyclinE = target: T31, CDK2/cyclinE (Homo sapiens, UniProt P24941); assay: KinaseProfiler CDK2/cyclinE; assay type: biochemical; settings: 10 μM, ATP near Km
T31 construct: purchased Millipore, Inc. (KinaseProfiler service)
Description: as §1

MINK = target: T32, MINK (Homo sapiens, UniProt Q8N4C8); assay: KinaseProfiler MINK; assay type: biochemical; settings: 10 μM, ATP near Km
T32 construct: purchased Millipore, Inc. (KinaseProfiler service)
Description: as §1

PKD2 = target: T33, PKD2 (Homo sapiens, UniProt Q9BZL6); assay: KinaseProfiler PKD2; assay type: biochemical; settings: 10 μM, ATP near Km
T33 construct: purchased Millipore, Inc. (KinaseProfiler service)
Description: as §1

MSK1 = target: T34, MSK1 (Homo sapiens, UniProt O75582); assay: KinaseProfiler MSK1; assay type: biochemical; settings: 10 μM, ATP near Km
T34 construct: purchased Millipore, Inc. (KinaseProfiler service)
Description: as §1

Ron = target: T35, Ron (Homo sapiens, UniProt Q04912); assay: KinaseProfiler Ron; assay type: biochemical; settings: 10 μM, ATP near Km
T35 construct: purchased Millipore, Inc. (KinaseProfiler service)
Description: as §1

MARK2 = target: T36, MARK2 (Homo sapiens, UniProt Q7KZI7); assay: KinaseProfiler MARK2; assay type: biochemical; settings: 10 μM, ATP near Km
T36 construct: purchased Millipore, Inc. (KinaseProfiler service)
Description: as §1

CHK1 = target: T37, CHK1 (Homo sapiens, UniProt O14757); assay: KinaseProfiler CHK1; assay type: biochemical; settings: 10 μM, ATP near Km
T37 construct: purchased Millipore, Inc. (KinaseProfiler service)
Description: as §1

CDK3/cyclinE = target: T38, CDK3/cyclinE (Homo sapiens, UniProt Q00526); assay: KinaseProfiler CDK3/cyclinE; assay type: biochemical; settings: 10 μM, ATP near Km
T38 construct: purchased Millipore, Inc. (KinaseProfiler service)
Description: as §1

SGK3 = target: T39, SGK3 (Homo sapiens, UniProt Q96BR1); assay: KinaseProfiler SGK3; assay type: biochemical; settings: 10 μM, ATP near Km
T39 construct: purchased Millipore, Inc. (KinaseProfiler service)
Description: as §1

MKK6 = target: T40, MKK6 (Homo sapiens, UniProt P52564); assay: KinaseProfiler MKK6; assay type: biochemical; settings: 10 μM, ATP near Km
T40 construct: purchased Millipore, Inc. (KinaseProfiler service)
Description: as §1

NEK6 = target: T41, NEK6 (Homo sapiens, UniProt Q9HC98); assay: KinaseProfiler NEK6; assay type: biochemical; settings: 10 μM, ATP near Km
T41 construct: purchased Millipore, Inc. (KinaseProfiler service)
Description: as §1

ULK2 = target: T42, ULK2 (Homo sapiens, UniProt Q8IYT8); assay: KinaseProfiler ULK2; assay type: biochemical; settings: 10 μM, ATP near Km
T42 construct: purchased Millipore, Inc. (KinaseProfiler service)
Description: as §1

T33 sequence (Q9BZL6 whole entry): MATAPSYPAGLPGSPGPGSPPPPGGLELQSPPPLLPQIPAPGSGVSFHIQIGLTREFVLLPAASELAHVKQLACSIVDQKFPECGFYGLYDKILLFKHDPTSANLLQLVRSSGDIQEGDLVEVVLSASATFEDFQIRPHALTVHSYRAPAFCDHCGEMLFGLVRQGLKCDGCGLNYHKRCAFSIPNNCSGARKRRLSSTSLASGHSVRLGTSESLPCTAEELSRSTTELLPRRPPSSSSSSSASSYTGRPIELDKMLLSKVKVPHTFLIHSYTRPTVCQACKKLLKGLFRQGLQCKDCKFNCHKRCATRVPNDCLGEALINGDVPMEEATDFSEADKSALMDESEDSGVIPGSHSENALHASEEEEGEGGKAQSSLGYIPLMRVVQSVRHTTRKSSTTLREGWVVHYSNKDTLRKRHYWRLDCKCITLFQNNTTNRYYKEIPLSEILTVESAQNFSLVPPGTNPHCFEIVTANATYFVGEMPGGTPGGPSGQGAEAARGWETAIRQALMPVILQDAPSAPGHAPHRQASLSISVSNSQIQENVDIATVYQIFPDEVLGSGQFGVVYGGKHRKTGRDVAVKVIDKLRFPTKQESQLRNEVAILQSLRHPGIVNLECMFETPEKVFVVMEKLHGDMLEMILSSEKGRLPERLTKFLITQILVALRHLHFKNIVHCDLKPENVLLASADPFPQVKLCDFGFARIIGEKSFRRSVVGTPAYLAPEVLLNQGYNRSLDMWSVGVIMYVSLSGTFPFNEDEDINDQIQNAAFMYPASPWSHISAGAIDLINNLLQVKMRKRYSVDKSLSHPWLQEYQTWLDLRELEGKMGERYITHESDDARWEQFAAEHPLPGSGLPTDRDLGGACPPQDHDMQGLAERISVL
T23 sequence (P22455 22-802): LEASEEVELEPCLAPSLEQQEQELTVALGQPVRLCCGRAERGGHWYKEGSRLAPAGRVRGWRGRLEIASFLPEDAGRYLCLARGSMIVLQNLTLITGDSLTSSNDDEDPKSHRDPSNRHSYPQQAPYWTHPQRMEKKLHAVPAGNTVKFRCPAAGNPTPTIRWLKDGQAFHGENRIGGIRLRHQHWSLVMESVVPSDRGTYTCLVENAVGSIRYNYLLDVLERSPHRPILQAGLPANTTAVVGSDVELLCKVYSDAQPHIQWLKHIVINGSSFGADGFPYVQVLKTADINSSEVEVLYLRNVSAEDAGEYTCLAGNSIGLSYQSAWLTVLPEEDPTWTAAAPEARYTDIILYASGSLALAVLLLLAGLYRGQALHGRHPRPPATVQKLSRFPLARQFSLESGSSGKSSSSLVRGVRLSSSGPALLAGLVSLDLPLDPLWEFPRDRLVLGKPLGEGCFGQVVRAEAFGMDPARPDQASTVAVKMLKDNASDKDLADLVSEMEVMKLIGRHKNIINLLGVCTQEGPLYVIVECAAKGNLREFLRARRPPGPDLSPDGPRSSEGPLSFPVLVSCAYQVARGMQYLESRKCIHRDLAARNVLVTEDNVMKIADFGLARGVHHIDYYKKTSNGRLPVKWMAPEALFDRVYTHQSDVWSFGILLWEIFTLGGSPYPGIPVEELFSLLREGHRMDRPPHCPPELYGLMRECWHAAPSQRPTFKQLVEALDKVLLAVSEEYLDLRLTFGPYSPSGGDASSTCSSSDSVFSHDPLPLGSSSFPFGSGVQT
T8 sequence (Q04759 whole entry): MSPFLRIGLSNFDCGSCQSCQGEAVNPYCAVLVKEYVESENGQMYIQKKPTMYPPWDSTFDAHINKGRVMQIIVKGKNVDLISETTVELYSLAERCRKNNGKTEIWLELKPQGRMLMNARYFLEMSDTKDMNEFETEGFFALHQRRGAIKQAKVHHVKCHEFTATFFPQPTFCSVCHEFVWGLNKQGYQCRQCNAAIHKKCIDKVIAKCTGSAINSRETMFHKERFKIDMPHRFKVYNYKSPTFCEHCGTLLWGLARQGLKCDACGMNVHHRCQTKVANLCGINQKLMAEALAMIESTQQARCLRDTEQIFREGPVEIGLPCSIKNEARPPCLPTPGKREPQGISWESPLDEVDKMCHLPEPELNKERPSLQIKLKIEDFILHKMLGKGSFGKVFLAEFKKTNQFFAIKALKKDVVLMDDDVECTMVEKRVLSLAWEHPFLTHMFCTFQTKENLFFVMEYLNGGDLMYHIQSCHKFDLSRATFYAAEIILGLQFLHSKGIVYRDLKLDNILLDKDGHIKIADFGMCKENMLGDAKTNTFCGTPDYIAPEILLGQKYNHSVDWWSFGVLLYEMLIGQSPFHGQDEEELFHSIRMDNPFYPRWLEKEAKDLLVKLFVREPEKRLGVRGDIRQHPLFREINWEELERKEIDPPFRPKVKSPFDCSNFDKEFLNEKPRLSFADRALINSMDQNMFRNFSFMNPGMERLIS
T11 sequence (P08069 959-1367 limits assumed): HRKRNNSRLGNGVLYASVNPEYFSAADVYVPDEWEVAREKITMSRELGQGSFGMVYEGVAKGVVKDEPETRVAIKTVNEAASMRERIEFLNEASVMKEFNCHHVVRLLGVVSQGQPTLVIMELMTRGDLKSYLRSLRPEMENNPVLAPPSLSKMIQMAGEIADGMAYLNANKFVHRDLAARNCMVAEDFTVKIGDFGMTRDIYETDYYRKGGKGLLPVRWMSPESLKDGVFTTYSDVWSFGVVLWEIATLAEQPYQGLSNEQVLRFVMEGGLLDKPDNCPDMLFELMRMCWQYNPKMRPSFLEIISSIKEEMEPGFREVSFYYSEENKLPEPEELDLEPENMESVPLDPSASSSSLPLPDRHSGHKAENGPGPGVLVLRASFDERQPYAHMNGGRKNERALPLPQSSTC
T22 sequence (Q9Y6M4 whole entry): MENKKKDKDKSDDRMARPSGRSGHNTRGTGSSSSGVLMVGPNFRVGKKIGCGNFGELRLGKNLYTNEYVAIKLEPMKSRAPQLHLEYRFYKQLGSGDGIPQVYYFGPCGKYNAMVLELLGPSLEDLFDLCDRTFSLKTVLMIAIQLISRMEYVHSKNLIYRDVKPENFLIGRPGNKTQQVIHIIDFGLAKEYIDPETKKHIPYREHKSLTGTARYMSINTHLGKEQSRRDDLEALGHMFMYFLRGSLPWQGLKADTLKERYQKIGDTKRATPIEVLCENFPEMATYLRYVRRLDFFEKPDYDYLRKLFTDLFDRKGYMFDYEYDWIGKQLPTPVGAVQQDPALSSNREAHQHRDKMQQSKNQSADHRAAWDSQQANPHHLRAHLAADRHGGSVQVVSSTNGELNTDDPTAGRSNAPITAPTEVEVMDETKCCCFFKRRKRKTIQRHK
T39 sequence (Q96BR1 whole entry): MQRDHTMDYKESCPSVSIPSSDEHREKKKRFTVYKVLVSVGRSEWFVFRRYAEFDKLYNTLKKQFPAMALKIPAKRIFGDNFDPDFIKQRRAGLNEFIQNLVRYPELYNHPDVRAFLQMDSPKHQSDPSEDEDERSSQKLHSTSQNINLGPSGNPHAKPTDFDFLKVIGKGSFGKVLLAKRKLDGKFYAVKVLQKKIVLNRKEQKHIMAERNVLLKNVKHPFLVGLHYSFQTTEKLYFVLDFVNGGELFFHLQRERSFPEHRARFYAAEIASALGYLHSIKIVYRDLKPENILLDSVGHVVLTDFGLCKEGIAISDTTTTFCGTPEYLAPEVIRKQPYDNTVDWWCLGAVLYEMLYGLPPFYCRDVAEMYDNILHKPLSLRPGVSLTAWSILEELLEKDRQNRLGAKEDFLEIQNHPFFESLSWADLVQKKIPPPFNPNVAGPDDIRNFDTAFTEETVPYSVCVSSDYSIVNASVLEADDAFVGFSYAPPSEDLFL
T21 sequence (P16234 24-1089): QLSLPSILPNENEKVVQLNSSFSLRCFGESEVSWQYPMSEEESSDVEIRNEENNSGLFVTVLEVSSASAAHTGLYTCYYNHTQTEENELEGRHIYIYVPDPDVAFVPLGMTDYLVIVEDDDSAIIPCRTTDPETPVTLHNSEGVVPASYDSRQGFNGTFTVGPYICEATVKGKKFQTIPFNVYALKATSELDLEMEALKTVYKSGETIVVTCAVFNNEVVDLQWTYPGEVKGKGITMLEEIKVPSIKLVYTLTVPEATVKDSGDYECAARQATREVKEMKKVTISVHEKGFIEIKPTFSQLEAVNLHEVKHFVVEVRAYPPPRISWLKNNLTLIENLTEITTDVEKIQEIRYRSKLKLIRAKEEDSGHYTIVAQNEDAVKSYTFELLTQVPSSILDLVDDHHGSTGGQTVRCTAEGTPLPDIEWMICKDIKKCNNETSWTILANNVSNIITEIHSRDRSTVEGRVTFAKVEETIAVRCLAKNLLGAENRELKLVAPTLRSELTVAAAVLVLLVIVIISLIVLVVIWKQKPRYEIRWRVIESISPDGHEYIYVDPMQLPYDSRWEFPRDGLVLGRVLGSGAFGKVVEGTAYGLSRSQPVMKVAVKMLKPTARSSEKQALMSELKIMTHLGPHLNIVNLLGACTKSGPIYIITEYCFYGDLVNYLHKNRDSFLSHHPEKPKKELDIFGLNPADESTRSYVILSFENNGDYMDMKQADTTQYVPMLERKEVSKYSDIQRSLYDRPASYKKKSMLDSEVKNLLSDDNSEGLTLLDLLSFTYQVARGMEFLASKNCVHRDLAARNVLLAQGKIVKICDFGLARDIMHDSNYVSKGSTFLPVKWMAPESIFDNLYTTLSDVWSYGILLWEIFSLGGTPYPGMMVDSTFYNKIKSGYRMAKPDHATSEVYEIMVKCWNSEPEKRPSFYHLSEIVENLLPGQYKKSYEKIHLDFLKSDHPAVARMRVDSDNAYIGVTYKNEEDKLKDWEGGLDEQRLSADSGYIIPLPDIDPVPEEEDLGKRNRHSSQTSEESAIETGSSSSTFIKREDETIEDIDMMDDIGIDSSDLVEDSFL

Cc1c(-c2cnn(C)c2)nn(-c2ccccc2)c1NC(=O)Nc1cc(C(F)(F)F)nn1-c1ccccc1 [Example 3, 1-(1′,4-dimethyl-1-phenyl-1H,1′H-[3,4′-bipyrazol]-5-yl)-3-(1-phenyl-3-(trifluoromethyl)-1H-pyrazol-5-yl)urea]
Avg POC (Flt1): 91.5 POC
Avg POC (MST2): 102.5 POC
Avg POC (MAP3K5): 102 POC
Avg POC (mTOR/FKBP12): 92.5 POC
Avg POC (WNK2): 120 POC
Avg POC (Rsk2): 134 POC
Avg POC (HIPK2): 101.5 POC
Avg POC (PKCtheta): 113.5 POC
Avg POC (RIPK2): 96.5 POC
Avg POC (EphA5): 116 POC
Avg POC (IGF-1R Activated): 87 POC
Avg POC (IR Activated): 99.5 POC
Avg POC (CK1delta): 141 POC
Avg POC (ALK): 110 POC
Avg POC (MRCKalpha): 172.5 POC
Avg POC (MAPKAP-K3): 128.5 POC
Avg POC (IGF-1R): 74.5 POC
Avg POC (AURKA): 121 POC
Avg POC (Fyn): 110 POC
Avg POC (MKK4_m): 132.5 POC
Avg POC (PDGFRalpha): 106 POC
Avg POC (CK1gamma3): 125 POC
Avg POC (FGFR4): 174.5 POC
Avg POC (DAPK1): 137.5 POC
Avg POC (TAO2): 108 POC
Avg POC (LIMK1): 92 POC
Avg POC (Plk3): 115 POC
activity against off-target kinases (off-target kinases): largely inactive
Avg POC (MAP4K2): 113 POC
Avg POC (PASK): 147 POC
Avg POC (PAK2): 98 POC
Avg POC (CDK2/cyclinE): 106.5 POC
Avg POC (MINK): 105 POC
Avg POC (PKD2): 115 POC
Avg POC (MSK1): 152.5 POC
Avg POC (Ron): 90.5 POC
Avg POC (MARK2): 106.5 POC
Avg POC (CHK1): 108 POC
Avg POC (CDK3/cyclinE): 103 POC
Avg POC (SGK3): 133 POC
Avg POC (MKK6): 132.5 POC
Avg POC (NEK6): 125 POC
Avg POC (ULK2): 98 POC
